We go through 19 compounds from US20240239788A1, “SMALL MOLECULE INHIBITORS OF KRAS G12D MUTANT” (Merck Sharp & Dohme LLC, priority 2021, published 2024).

The target of experiment [1] is KRAS G12D / Ras binding domain of C-RAF (Homo sapiens (Human), UniProt P01116, G12D). The experiment in a line: RAS:RAF-RBD binding assay (cRaf), TR-FRET. To be noted: biotinylated KRAS G12D, GST-C-RAF RBD.
Description: Compounds are added to KRAS and then after a 30-minute incubation time the RAF-RBD and detection antibodies are added. Small molecule inhibitors that block the interaction of c-RAF-RBD prevent generation of a TR-FRET signal.
Biotinylated KRAS G12D protein is diluted to 20 nM in assay buffer (20 mM HEPES pH 7.5, 150 mM sodium chloride, 10 mM magnesium chloride, and 0.01% Tween20).
Each test compound (10 mM stock in DMSO) is diluted in DMSO to make a 10-point, 3-fold dilution series in a 384-well low dead volume microplate (Labcyte, catalog #LP-0200).
Each well of the assay plate receives 5 μL of Biotinylated KRAS G12D assay solution and is incubated at room temperature for 30 minutes. Each well then receives 5 μL of 100 nM GST-C-RAF RBD protein and a 1:100 dilution of both anti-GST-d2 (Cisbio catalog #61GSTDLA) and Streptavidin-Tb cryptate (Cisbio catalog #610SATLA) in assay buffer and the plate is mixed and briefly centrifuged followed by a 60 minute incubation at room temperature.
The apparent effect as a function of compound concentration is fit to a four-parameter logistic equation.
The target in experiment [2] is KRAS protein containing G12D mutation (Homo sapiens (Human), UniProt P01116, G12D). In words: SOS-catalyzed nucleotide exchange assay (GNE), TR-FRET. The class given is biochemical. The note with it: biotinylated KRAS G12D, SOS and GTP, 60-minute incubation. Here is the method:
Compounds are added to this complex and then after a 60-minute incubation time the mixture is treated with SOS and unlabeled GTP. Small molecule inhibitors stabilize the Bodipy-GDP complex whereas the untreated protein rapidly exchanges Bodipy-GDP for unlabeled GTP resulting in reduced TR-FRET signal.
This solution is referred to as biotinylated KRAS G12D stock solution.
Background: TR-FRET usually uses a lanthanide donor and a delayed reading to cut background.

The subject of experiment [3] is AsPC-1 cells containing homozygous KRAS-G12D activating mutation. In words: Cellular phospho-ERK assay (Examples 1a-106). It is filed as cell-based. The note with it: AsPC-1 cells, 2 hours, ratio of p-Erk vs total Erk, read-out: IC50 (nM) pERK (Cell). From the text: 5% CO? overnight. […] Assay plates were read on a EnVision Multimode Plate Reader (PerkinElmer) and the ratio of p-Erk vs total Erk in each well was used as the final readout.

Like-named read-outs stand apart in the source and are kept apart here.

One may read the IC50 as the point on the concentration scale where inhibition reaches its midpoint.

Sequence of KRAS protein containing G12D mutation (P01116 other isoform, or with tags, fused parts or gaps G12D (already in the parent)): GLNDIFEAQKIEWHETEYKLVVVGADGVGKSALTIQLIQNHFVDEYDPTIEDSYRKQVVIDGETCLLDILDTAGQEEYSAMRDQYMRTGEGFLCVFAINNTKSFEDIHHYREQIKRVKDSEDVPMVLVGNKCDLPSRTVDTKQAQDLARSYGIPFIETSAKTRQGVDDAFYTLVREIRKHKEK
Sequence of KRAS G12D / Ras binding domain of C-RAF (P01116 other isoform, or with tags, fused parts or gaps G12D (already in the parent)): as above

Take `CN(C)C[C@]1(COc2nc(N3CC4CCC(C3)N4)c3cc(Cl)c(-c4cc(O)cc5ccccc45)c(F)c3n2)CC1(F)F` (atropisomer, axis not shown) [Example 11a, 4-(4-(3.8-diazabicyclo[3.2.1]octan-3-yl)-6-chloro-2-(((S)-1-((dimethylamino)methyl)-2,2-difluorocyclopropyl)methoxy)-8-fluoroquinazolin-7-yl)naphthalen-2-ol]: the results for the IC50 in experiment [1] (read-out: IC50 (nM) (cRaf)), in experiment [2] and in experiment [3] were 4240 nM, 24.1 nM and 2080 nM, respectively.
The matching figures for `CN(C)C[C@]1(COc2nc(N3CC4CCC(C3)N4)c3cc(Cl)c(-c4cc(O)cc5ccccc45)c(F)c3n2)CC1(F)F` (atropisomer, axis not shown) [Example 11b, 4-(4-(3.8-diazabicyclo[3.2.1]octan-3-yl)-6-chloro-2-(((S)-1-((dimethylamino)methyl)-2,2-difluorocyclopropyl)methoxy)-8-fluoroquinazolin-7-yl)naphthalen-2-ol]: 7240 nM, 131 nM and 6260 nM.
As for `CN(C)C[C@@]1(COc2nc(N3C[C@H]4CC[C@@](C)(C3)N4)c3cc(Cl)c(-c4c(F)cc(F)c5ccc(N)nc45)c(F)c3n2)CC1(F)F` (single isomer, unassigned) [92b], the IC50 in experiment [1] (IC50 (nM) (cRaf)) came to 9210 nM; in experiment [2], 236 nM; in experiment [3], 5320 nM.
In the same order, the values of `C#Cc1cccc2cc(O)cc(-c3c(F)cc4c(N5C[C@H]6CC[C@@](C)(C5)N6)nc(OCC5(CN6CC[C@@H](F)C6)CC5)nc4c3F)c12` (single isomer, unassigned) [103a] are 26.2 nM, 1.05 nM and 3.76 nM.
For the compound `Cc1c(Cl)cc2[nH]nc(C)c2c1-c1c(F)cc2c(N3C[C@H]4CC[C@@](C)(C3)N4)nc(OCC3(CN(C)C)CC3(F)F)nc2c1F` (single isomer, unassigned) [Ex 68], the IC50 in experiment [1] (IC50 (nM) (cRaf)) came out at 3300 nM; in experiment [2], 39.9 nM; in experiment [3] (Homo sapiens, ASPC1, 2 h), 2380 nM.
On to `Cc1cc2[nH]ncc2c(-c2c(F)cc3c(N4C[C@H]5CC[C@@](C)(C4)N5)nc(OC[C@]4(CN(C)C)CC4(F)F)nc3c2F)c1C(F)(F)F` (single isomer, unassigned) [Ex 76a], for which the IC50 was 1810 nM in experiment [1] (IC50 (nM) (cRaf)), 12 nM in experiment [2] and 593 nM in experiment [3].
The matching figures for `Cc1cc2[nH]ncc2c(-c2c(F)cc3c(N4C[C@H]5CC[C@@](C)(C4)N5)nc(OCC4(CN5CC[C@@H](F)C5)CC4)nc3c2F)c1C(F)(F)F` (single isomer, unassigned) [Ex 80a]: 4050 nM, 31.8 nM and 737 nM.
Take `Cc1cc2[nH]ncc2c(C2Cc3nc(OC[C@]4(CN(C)C)CC4(F)F)nc(N4C[C@H]5CC[C@@](C)(C4)N5)c3C(=O)O2)c1C(F)(F)F` (single isomer, unassigned) [Ex. 96b]: the IC50 was determined as 637 nM in experiment [1] (IC50 (nM) (cRaf)), 3.31 nM in experiment [2] and 657 nM in experiment [3].
With `Cc1cc2[nH]ncc2c(C2Cc3nc(OCC4(CN5CC[C@@H](F)C5)CC4)nc(N4C[C@H]5CC[C@@](C)(C4)N5)c3C(=O)N2)c1C(F)(F)F` (single isomer, unassigned) [Ex. 98a], the IC50 in experiment [1] (read-out: IC50 (nM) (cRaf)) was 34200 nM; in experiment [2], 380 nM; in experiment [3], 7270 nM.
As to `Oc1cc(-c2c(F)cc3c(N4CC5CC(O)C(C4)N5)nc(OCC4(CN5CCOCC5)CC4)nc3c2F)c2ccccc2c1` (single isomer, unassigned) [Example 16], the IC50 turned out to be 871 nM in experiment [1] (IC50 (nM) (cRaf)); 30.2 nM in experiment [2]; 5760 nM in experiment [3] (Homo sapiens, ASPC1, 2 h).
Turning to `Oc1cc(-c2c(F)cc3c(N4CC5CC(O)C(C4)N5)nc(OCC4(CN5CCOCC5)CC4)nc3c2F)c2ccccc2c1` (single isomer, unassigned) [Example 17], the 50% inhibitory concentration (IC50) in experiment [1] (IC50 (nM) (cRaf)) amounted to 3260 nM; in experiment [2], 52.1 nM; in experiment [3], 7430 nM.
Consider `CN(C)CC1(COc2nc(N3C[C@H]4C[C@@H](O)[C@@H](C3)N4)c3cc(Cl)c(-c4cc(O)cc5ccccc45)c(F)c3n2)CC1` (single isomer, unassigned) [Example 18a], for which the IC50 in experiment [1] (IC50 (nM) (cRaf)) is 293 nM; in experiment [2], 8.97 nM; in experiment [3], 20600 nM.
The matching figures for `CN(C)CC1(COc2nc(N3C[C@H]4C[C@@H](O)[C@@H](C3)N4)c3cc(Cl)c(-c4cc(O)cc5ccccc45)c(F)c3n2)CC1` (single isomer, unassigned) [Example 18b]: 2680 nM, 77.3 nM and 50800 nM.
With `CN(C)CC1(COc2nc(N3CC4CC(O)C(C3)N4)c3cc(Cl)c(-c4cc(O)cc5ccccc45)c(F)c3n2)CC1` (single isomer, unassigned) [Example 22b, 3-(6-chloro-2-((1-((dimethylamino)meth-yl)cyclo-propyl)methoxy)-8-fluoro-7-(3-hydroxy-naphthalen-1-yl)quinazolin-4-yl)-3,8-diazabicyclo[3.2.1]oc-tan-6-ol], the IC50 in experiment [1] (IC50 (nM) (cRaf)) came out at 8450 nM; in experiment [2], 78.9 nM; in experiment [3], 38300 nM.
The matching figures for `CN(C)CC1(COc2nc(N3C[C@@]4(C)CC[C@H]3CN4)c3cc(Cl)c(-c4cc(O)cc5ccccc45)c(F)c3n2)CC1` (single isomer, unassigned) [Example 38a]: 617 nM, 45.2 nM and 1280 nM.
As to `CN(C)CC1(COc2nc(N3C[C@@H]4C[C@H](O)C(C)(C3)N4)c3cc(Cl)c(-c4cc(O)cc5ccccc45)c(F)c3n2)CC1` (stereo in doubt) [Example 41, 3-(6-chloro-2-((1-((dimethylamino)methyl)cyclopropyl)methoxy)-8-fluoro-7-(3-hydroxynaphthalen-1-yl)quinazolin-4-yl)-5-methyl-3,8-diazabicyclo[3.2.1]octan-6-ol], the IC50 was found to be 1270 nM in experiment [1] (IC50 (nM) (cRaf)); 20.3 nM in experiment [2]; 2840 nM in experiment [3] (Homo sapiens, ASPC1, 2 h).
The matching figures for `CN(C)CC1(COc2nc(N3C[C@H]4NC(C)(C[C@H]4O)C3)c3cc(Cl)c(-c4cc(O)cc5ccccc45)c(F)c3n2)CC1` (stereo in doubt) [Example 42, 3-(6-chloro-2-((1-((dimethylamino)methyl)cyclopropyl)methoxy)-8-fluoro-7-(3-hydroxynaphthalen-1-yl)quinazolin-4-yl)-1-methyl-3,8-diazabicyclo [3.2.1]octan-6-ol]: 20400 nM, 17.5 nM and 8460 nM.
The matching figures for `CN(C)CC1(COc2nc(N3CC4C[C@@H](O)[C@@](C)(C3)N4)c3cc(Cl)c(-c4cc(O)cc5ccccc45)c(F)c3n2)CC1` (stereo in doubt) [Example 43, 3-(6-chloro-2-((1-((dimethylamino)methyl)cyclopropyl)methoxy)-8-fluoro-7-(3-hydroxynaphthalen-1-yl)quinazolin-4-yl)-5-methyl-3,8-diazabicyclo [3.2.1]octan-6-ol]: 2200 nM, 74.3 nM and 12600 nM.
`CN(C)C[C@@]1(COc2nc(N3C[C@H]4CC[C@@](C)(C3)N4)c3cc(F)c(-c4cc(O)cc5ccccc45)c(F)c3n2)CC1(F)F` [Ex 69, 4-(2-(((R)-1-((dimethylamino)methyl)-2,2-difluorocyclopropyl)methoxy)-6,8-difluoro-4-((1S,5R)-1-methyl-3,8-diazabicyclo[3.2.1]octan-3-yl)quinazolin-7-yl)naphthalen-2-ol]: the IC50 was determined as 194 nM in experiment [1] (IC50 (nM) (cRaf)); 1.76 nM in experiment [2]; 275 nM in experiment [3] (Homo sapiens, ASPC1, 2 h).
